Measurements: the CheMixHub viscosity set

Assay: xn = mol fraction of the nth substance listed

CC(C)CC1CCCCC1 + CCCCCCCCCCCCCCCC
viscosity [mPa·s], 102 kPa
Conditions | x1 = 0.1 | x1 = 0.2005 | x1 = 0.3003 | x1 = 0.3992 | x1 = 0.5037 | x1 = 0.6003 | x1 = 0.6997 | x1 = 0.7997
293.15 K | 3.22 | 2.96 | 2.7 | 2.46 | 2.2 | 1.99 | 1.77 | 1.56
303.15 K | 2.57 | 2.38 | 2.19 | 2.01 | 1.82 | 1.65 | 1.48 | 1.31
313.15 K | 2.1 | 1.95 | 1.81 | 1.67 | 1.52 | 1.39 | 1.26 | 1.12
323.15 K | 1.74 | 1.63 | 1.52 | 1.41 | 1.29 | 1.19 | 1.07 | 0.972

CCCNCCC + CCCCCCCCCCO
viscosity [mPa·s], 101.33 kPa
Conditions | x1 = 0.1006 | x1 = 0.1963 | x1 = 0.2905 | x1 = 0.3847 | x1 = 0.5117 | x1 = 0.618 | x1 = 0.7197 | x1 = 0.8159 | x1 = 0.895
303.15 K | 7.53 | 6.262 | 5.075 | 3.99 | 2.748 | 1.943 | 1.364 | 0.9795 | 0.7427
313.15 K | 5.817 | 4.775 | 3.828 | 2.993 | 2.07 | 1.486 | 1.076 | 0.7925 | 0.6095

CCCNCCC + CCCCCCCCO
viscosity [mPa·s], 101.33 kPa
Conditions | x1 = 0.0971 | x1 = 0.1988 | x1 = 0.2871 | x1 = 0.3825 | x1 = 0.4806 | x1 = 0.5852 | x1 = 0.6925 | x1 = 0.7882 | x1 = 0.8977
303.15 K | 5.165 | 4.21 | 3.462 | 2.752 | 2.135 | 1.61 | 1.202 | 0.9319 | 0.6909
313.15 K | 3.773 | 3.107 | 2.571 | 2.053 | 1.6 | 1.223 | 0.9264 | 0.7294 | 0.5547

CC1CCCCC1 + CCCCCCCO
Conditions | viscosity [mPa·s]
298.15 K, 101 kPa, x1 = 0.111 | 4.608
298.15 K, 101 kPa, x1 = 0.2237 | 3.546
298.15 K, 101 kPa, x1 = 0.389 | 2.371
298.15 K, 101 kPa, x1 = 0.6878 | 1.192
298.15 K, 101 kPa, x1 = 0.8281 | 0.89
298.15 K, 101 kPa, x1 = 0.9181 | 0.757
303.15 K, 101.33 kPa, x2 = 0.1208 | 0.7838
303.15 K, 101.33 kPa, x2 = 0.211 | 0.9181
303.15 K, 101.33 kPa, x2 = 0.3517 | 1.174
303.15 K, 101.33 kPa, x2 = 0.4355 | 1.364
303.15 K, 101.33 kPa, x2 = 0.5214 | 1.599
303.15 K, 101.33 kPa, x2 = 0.608 | 1.899
303.15 K, 101.33 kPa, x2 = 0.718 | 2.394
303.15 K, 101.33 kPa, x2 = 0.7991 | 2.87
303.15 K, 101.33 kPa, x2 = 0.8894 | 3.56

CCCNCCC + CCCCCCCO
viscosity [mPa·s], 101.33 kPa
Conditions | x1 = 0.0952 | x1 = 0.1932 | x1 = 0.2891 | x1 = 0.3853 | x1 = 0.5194 | x1 = 0.6089 | x1 = 0.717 | x1 = 0.8156 | x1 = 0.9054
303.15 K | 4.145 | 3.485 | 2.867 | 2.311 | 1.672 | 1.333 | 1.02 | 0.809 | 0.6553
313.15 K | 3.063 | 2.556 | 2.111 | 1.724 | 1.283 | 1.045 | 0.8136 | 0.6509 | 0.5273

CC1CCCCC1 + CCCCCCO
303.15 K, 101.33 kPa
Conditions | viscosity [mPa·s]
x1 = 0.1015 | 3.051
x1 = 0.2596 | 2.193
x1 = 0.4197 | 1.536
x1 = 0.582 | 1.11
x1 = 0.7447 | 0.852
x1 = 0.8989 | 0.693
x2 = 0.1112 | 0.7521
x2 = 0.1986 | 0.8469
x2 = 0.3135 | 1.009
x2 = 0.4018 | 1.148
x2 = 0.4981 | 1.351
x2 = 0.5978 | 1.595
x2 = 0.7018 | 1.908
x2 = 0.8123 | 2.408
x2 = 0.8923 | 2.874

CCOC(=O)[C@@H](O)[C@H](O)C(=O)OCC + CCCCCCO
viscosity [mPa·s], 101 kPa
Conditions | x1 = 0.1001 | x1 = 0.2 | x1 = 0.3 | x1 = 0.4 | x1 = 0.5 | x1 = 0.5998 | x1 = 0.7001 | x1 = 0.8 | x1 = 0.8995
293.15 K | 6.18 | 7.861 | 10.57 | 14.54 | 20.8 | 30.68 | 43.54 | 72.93 | 122.9
298.15 K | 5.252 | 6.543 | 8.559 | 11.55 | 16.09 | 22.97 | 31.66 | 50.5 | 81.01
303.15 K | 4.449 | 5.484 | 7.046 | 9.307 | 12.59 | 17.51 | 23.57 | 36.18 | 55.71
308.15 K | 3.803 | 4.618 | 5.836 | 7.569 | 10.04 | 13.64 | 18 | 26.73 | 39.73
313.15 K | 3.251 | 3.893 | 4.85 | 6.204 | 8.087 | 10.78 | 13.99 | 20.22 | 29.19
318.15 K | 2.838 | 3.369 | 4.146 | 5.219 | 6.697 | 8.77 | 11.19 | 15.77 | 22.15
323.15 K | 2.506 | 2.946 | 3.581 | 4.451 | 5.632 | 7.262 | 9.138 | 12.59 | 17.3

CC1CCCCC1 + CCCCCO
303.15 K, 101.33 kPa
Conditions | viscosity [mPa·s]
x1 = 0.0947 | 2.283
x1 = 0.2614 | 1.737
x1 = 0.42 | 1.289
x1 = 0.5783 | 0.968
x1 = 0.7422 | 0.777
x1 = 0.9027 | 0.663
x2 = 0.1011 | 0.7025
x2 = 0.2073 | 0.7951
x2 = 0.3017 | 0.8911
x2 = 0.4214 | 1.039
x2 = 0.4998 | 1.16
x2 = 0.5988 | 1.325
x2 = 0.7007 | 1.535
x2 = 0.8084 | 1.852
x2 = 0.9144 | 2.305

CCCNCCC + CCCCCO
viscosity [mPa·s], 101.33 kPa
Conditions | x1 = 0.0952 | x1 = 0.1918 | x1 = 0.2881 | x1 = 0.3825 | x1 = 0.5157 | x1 = 0.616 | x1 = 0.7094 | x1 = 0.8061 | x1 = 0.9023
303.15 K | 2.51 | 2.185 | 1.875 | 1.593 | 1.244 | 1.034 | 0.8687 | 0.7254 | 0.6098
313.15 K | 2.051 | 1.767 | 1.51 | 1.281 | 1.02 | 0.8452 | 0.7187 | 0.6045 | 0.5061

CCOC(=O)c1ccccc1 + CCCCCO
viscosity [mPa·s], 101.3 kPa
Conditions | x1 = 0.0771 | x1 = 0.1582 | x1 = 0.2437 | x1 = 0.3339 | x1 = 0.4292 | x1 = 0.53 | x1 = 0.6369 | x1 = 0.7504 | x1 = 0.8712
303 K | 2.883 | 2.764 | 2.656 | 2.533 | 2.404 | 2.273 | 2.135 | 1.985 | 1.865
308 K | 2.541 | 2.449 | 2.349 | 2.25 | 2.154 | 2.031 | 1.92 | 1.8 | 1.691
313 K | 2.224 | 2.139 | 2.051 | 1.962 | 1.875 | 1.787 | 1.701 | 1.615 | 1.528
318 K | 2.005 | 1.931 | 1.86 | 1.789 | 1.723 | 1.648 | 1.56 | 1.485 | 1.41
323 K | 1.798 | 1.739 | 1.68 | 1.626 | 1.569 | 1.505 | 1.439 | 1.376 | 1.313

OC(c1ccccc1)(c1ccccc1)c1ccccc1 + CCCCCOC(C)=O
Conditions | viscosity [mPa·s]
298.15 K, 101 kPa, x2 = 0.5 | 1.9

CC(C)O + CCCCO
298.15 K, 101 kPa
Conditions | viscosity [mPa·s]
x2 = 0.1026 | 2.057
x2 = 0.2012 | 2.105
x2 = 0.302 | 2.145
x2 = 0.4045 | 2.207
x2 = 0.5086 | 2.269
x2 = 0.6002 | 2.327
x2 = 0.734 | 2.402
x2 = 0.7964 | 2.437
x2 = 0.9021 | 2.506

CCCCCl + CCCCO
viscosity [mPa·s], 101 kPa
Conditions | x1 = 0.0749 | x1 = 0.2028 | x1 = 0.3021 | x1 = 0.4122 | x1 = 0.5016 | x1 = 0.6048 | x1 = 0.7044 | x1 = 0.8062 | x1 = 0.9064
298.15 K | 2.121 | 1.523 | – | 0.9486 | – | 0.6572 | 0.5679 | 0.4955 | 0.4465
313.15 K | 1.449 | 1.081 | 0.8789 | 0.7145 | 0.6192 | 0.5213 | 0.4589 | 0.4114 | 0.3742

CCOC(=O)[C@@H](O)[C@H](O)C(=O)OCC + CCCCO
viscosity [mPa·s], 101 kPa
Conditions | x1 = 0.0999 | x1 = 0.1999 | x1 = 0.3 | x1 = 0.4001 | x1 = 0.4999 | x1 = 0.5999 | x1 = 0.7001 | x1 = 0.8001 | x1 = 0.8999
293.15 K | 3.887 | 5.56 | 8.24 | 12.44 | 18.99 | 29.36 | 42.81 | 68.14 | 118.3
298.15 K | 3.353 | 4.704 | 6.807 | 9.946 | 14.79 | 22.09 | 31.37 | 47.6 | 78.41
303.15 K | 2.902 | 3.987 | 5.63 | 8.08 | 11.64 | 16.9 | 23.32 | 34.35 | 54.15
308.15 K | 2.527 | 3.408 | 4.729 | 6.627 | 9.328 | 13.22 | 17.74 | 25.53 | 38.75
313.15 K | 2.217 | 2.928 | 3.975 | 5.454 | 7.552 | 10.48 | 13.83 | 19.41 | 28.56
318.15 K | 1.953 | 2.557 | 3.433 | 4.631 | 6.283 | 8.549 | 11.11 | 15.2 | 21.73
323.15 K | 1.746 | 2.26 | 2.993 | 3.98 | 5.303 | 7.092 | 9.107 | 12.19 | 16.99
